Source: PubChem BioAssay AID248 (DTP/NCI, 2004)
Where “and” joins values, the source holds several entries; their conditions need not be identical. Equal values may be shown once. Inconclusive results and toxic doses are left out. Rule as the data show it: active = T/C of 150% or more; inactive = T/C below 125%.

Tested on: L1210 leukemia ip in BDF1 mice, survival T/C
Experiment: NCI In Vivo Anticancer Drug Screen. Data for tumor model L1210 Leukemia (intraperitoneal) in B6D2F1 (BDF1) mice
Conditions: endpoint: mean survival time, higher = longer survival
Outline: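 Tumor was transplanted into mice, which were then dosed with test compound or vehicle alone. Survival was recorded for each group, and the treated figure was expressed relative to the control figure.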

[1] = dose: 50.0 mg/kg/injection, schedule: Q01DX001 (ip), vehicle: saline
[2] = dose: 100.0 mg/kg/injection, schedule: Q01DX001 (ip), vehicle: saline
[3] = dose: 200.0 mg/kg/injection, schedule: Q01DX001 (ip), vehicle: saline
[4] = dose: 400.0 mg/kg/injection, schedule: Q01DX001 (ip), vehicle: saline
[5] = dose: 25.0 mg/kg/injection, schedule: Q04DX003 (ip), vehicle: saline
[6] = dose: 50.0 mg/kg/injection, schedule: Q04DX003 (ip), vehicle: saline
[7] = dose: 100.0 mg/kg/injection, schedule: Q01DX001 (ip), vehicle: carboxymethylcellulose (CMC)
[8] = dose: 200.0 mg/kg/injection, schedule: Q01DX001 (ip), vehicle: carboxymethylcellulose (CMC)
[9] = dose: 400.0 mg/kg/injection, schedule: Q01DX001 (ip), vehicle: carboxymethylcellulose (CMC)
[10] = dose: 25.0 mg/kg/injection, schedule: Q04DX002 (ip), vehicle: saline
[11] = dose: 25.0 mg/kg/injection, schedule: Q01DX009 (ip), vehicle: Klucel (hydroxypropylcellulose) (HPC)
[12] = dose: 50.0 mg/kg/injection, schedule: Q01DX009 (ip), vehicle: Klucel (hydroxypropylcellulose) (HPC)
[13] = dose: 100.0 mg/kg/injection, schedule: Q01DX009 (ip), vehicle: Klucel (hydroxypropylcellulose) (HPC)
[14] = dose: 100.0 mg/kg/injection, schedule: Q04DX003 (ip), vehicle: Klucel (hydroxypropylcellulose) (HPC)
[15] = dose: 200.0 mg/kg/injection, schedule: Q04DX003 (ip), vehicle: Klucel (hydroxypropylcellulose) (HPC)
[16] = dose: 25.0 mg/kg/injection, schedule: Q01DX009 (ip), vehicle: saline
[17] = dose: 200.0 mg/kg/injection, schedule: Q01DX009 (ip), vehicle: Klucel (hydroxypropylcellulose) (HPC)
[18] = dose: 400.0 mg/kg/injection, schedule: Q01DX009 (ip), vehicle: Klucel (hydroxypropylcellulose) (HPC)
[19] = dose: 100.0 mg/kg/injection, schedule: Q01DX009 (ip), vehicle: saline with Tween-80

Measured: T/C

COc1ccc(CN2CCCN(Cc3ccc(OC)cc3OC)C2c2ccccc2O)c(OC)c1
inactive: [1] 97 % of control | [2] 92 % of control | [3] 90 % of control | [4] 101 % of control

O=C(CCc1ccccc1)NC1CCCCC1
inactive: dose: 12.5 mg/kg/injection, schedule: Q01DX001 (ip), vehicle: Klucel (hydroxypropylcellulose) (HPC) 104 % of control | dose: 12.5 mg/kg/injection, schedule: Q04DX003 (ip), vehicle: saline 88 % of control | dose: 25.0 mg/kg/injection, schedule: Q01DX001 (ip), vehicle: Klucel (hydroxypropylcellulose) (HPC) 104 % of control | [5] 88 % of control | dose: 50.0 mg/kg/injection, schedule: Q01DX001 (ip), vehicle: Klucel (hydroxypropylcellulose) (HPC) 98 % of control | [6] 93 % of control

O=C(NCCCCC(NC(=O)c1ccccc1)C(=O)NCCCCCCCCCCNC(=O)C(CCCCNC(=O)c1ccccc1)NC(=O)c1ccccc1)c1ccccc1 (stereo not drawn)
inactive: dose: 10.0 mg/kg/injection, schedule: Q01DX Z (ip), vehicle: saline 100 % of control | dose: 30.0 mg/kg/injection, schedule: Q01DX Z (ip), vehicle: saline 90 % of control

CCN(CC)CCNc1ccc(CO)c2oc3cc(Cl)ccc3c(=O)c12
inactive: dose: 31.25 mg/kg/injection, schedule: Q01DX009 (ip), vehicle: Klucel (hydroxypropylcellulose) (HPC) 94 % of control | dose: 62.5 mg/kg/injection, schedule: Q01DX009 (ip), vehicle: Klucel (hydroxypropylcellulose) (HPC) 100 % of control | dose: 125.0 mg/kg/injection, schedule: Q01DX009 (ip), vehicle: Klucel (hydroxypropylcellulose) (HPC) 96 % of control

C[Si](C)(CCl)O[Si](C)(C)CCl
inactive: dose: 50.0 mg/kg/injection, schedule: Q01DX001 (ip), vehicle: carboxymethylcellulose (CMC) 113 % of control | [7] 97 % of control | [8] 106 % of control | [9] 97 % of control

COC(=O)c1cc(=O)c2cc(C(C)=O)ccc2[nH]1
inactive: dose: 100.0 mg/kg/injection, schedule: Q01DX001 (ip), vehicle: other 95 % of control | dose: 200.0 mg/kg/injection, schedule: Q01DX001 (ip), vehicle: other 94 % of control and 89 % of control | dose: 400.0 mg/kg/injection, schedule: Q01DX001 (ip), vehicle: other 105 % of control and 90 % of control

CC(O)C[As](=O)(O)c1ccccc1 (stereo not drawn)
inactive: dose: 12.5 mg/kg/injection, schedule: Q04DX002 (ip), vehicle: saline 103 % of control | [10] 100 % of control

Cc1cccc(C)c1NC(=O)c1c(Cl)c(Cl)c(Cl)c(Cl)c1C(=O)O
inactive: [11] 95 % of control | [12] 87 % of control | [13] 94 % of control and 88 % of control | [14] 102 % of control | [15] 102 % of control | dose: 400.0 mg/kg/injection, schedule: Q04DX003 (ip), vehicle: Klucel (hydroxypropylcellulose) (HPC) 107 % of control

[NH-]CC(=O)[N-]CC(=O)O.[NH-]CC(=O)[N-]CC(=O)O.[Ni]
inactive: [16] 86 % of control | [5] 107 % of control | [6] 116 % of control | dose: 100.0 mg/kg/injection, schedule: Q04DX003 (ip), vehicle: saline 98 % of control and 92 % of control

O=C(/C=C/C=C\c1ccccc1)/C=C/C=C/c1ccccc1
inactive: dose: 100.0 mg/kg/injection, schedule: Q01DX001 (ip), vehicle: Klucel (hydroxypropylcellulose) (HPC) 91 % of control | [13] 92 % of control | dose: 200.0 mg/kg/injection, schedule: Q01DX001 (ip), vehicle: Klucel (hydroxypropylcellulose) (HPC) 93 % of control | [17] 92 % of control | dose: 400.0 mg/kg/injection, schedule: Q01DX001 (ip), vehicle: Klucel (hydroxypropylcellulose) (HPC) 93 % of control | [18] 89 % of control

CC12CC3CC(C)(C1)CC(OCCN)(C3)C2
inactive: [16] 94 % of control | [10] 98 % of control | dose: 50.0 mg/kg/injection, schedule: Q01DX009 (ip), vehicle: saline 108 % of control | dose: 50.0 mg/kg/injection, schedule: Q04DX002 (ip), vehicle: saline 98 % of control | dose: 100.0 mg/kg/injection, schedule: Q01DX009 (ip), vehicle: saline 92 % of control | dose: 100.0 mg/kg/injection, schedule: Q04DX002 (ip), vehicle: saline 110 % of control and 117 % of control

O=[N+]([O-])c1cccc(S(=O)(=O)Oc2ccccc2)c1
inactive: [13] 102 % of control | [17] 95 % of control | [18] 101 % of control

Cc1nn(C(N)=S)c(C)c1N=Nc1cccc(Cl)c1
inactive: dose: 75.0 mg/kg/injection, schedule: Q01DX001 (ip), vehicle: other 96 % of control | dose: 150.0 mg/kg/injection, schedule: Q01DX001 (ip), vehicle: other 100 % of control | dose: 300.0 mg/kg/injection, schedule: Q01DX001 (ip), vehicle: other 105 % of control

CCCCC1=C(OCC)C(CCCC)C1=O (stereo not drawn)
inactive: dose: 10.0 mg/kg/injection, schedule: Q01DX009 (ip), vehicle: Klucel (hydroxypropylcellulose) (HPC) 94 % of control | dose: 20.0 mg/kg/injection, schedule: Q01DX009 (ip), vehicle: Klucel (hydroxypropylcellulose) (HPC) 92 % of control | dose: 40.0 mg/kg/injection, schedule: Q01DX009 (ip), vehicle: Klucel (hydroxypropylcellulose) (HPC) 94 % of control | [13] 101 % of control | [14] 96 % of control | [15] 100 % of control

CN(C)CCCNC(=S)Nc1ccc(Cl)cc1
inactive: dose: 50.0 mg/kg/injection, schedule: Q01DX009 (ip), vehicle: saline with Tween-80 108 % of control | [19] 108 % of control

C=CCNC(=S)Nc1cccc(C(C)OC(=O)NC(C)(C)C)c1 (stereo not drawn)
inactive: [19] 106 % of control | dose: 100.0 mg/kg/injection, schedule: Q04DX003 (ip), vehicle: saline with Tween-80 95 % of control | dose: 200.0 mg/kg/injection, schedule: Q01DX009 (ip), vehicle: saline with Tween-80 107 % of control | dose: 200.0 mg/kg/injection, schedule: Q04DX003 (ip), vehicle: saline with Tween-80 93 % of control | dose: 400.0 mg/kg/injection, schedule: Q04DX003 (ip), vehicle: saline with Tween-80 94 % of control

Clc1cccc(NC(c2ccccc2)=[N+]2CCCCC2)c1
inactive: dose: 100.0 mg/kg/injection, schedule: Q04DX002 (ip), vehicle: Klucel (hydroxypropylcellulose) (HPC) 95 % of control | dose: 200.0 mg/kg/injection, schedule: Q04DX002 (ip), vehicle: Klucel (hydroxypropylcellulose) (HPC) 106 % of control | dose: 400.0 mg/kg/injection, schedule: Q04DX002 (ip), vehicle: Klucel (hydroxypropylcellulose) (HPC) 113 % of control

CSc1cc2c(cc1NC(C)=O)C(=O)c1ccccc1-2
inactive: [7] 90 % of control | [8] 106 % of control | [9] 109 % of control

C=C(NC(=O)CNC(=O)CN)C(=O)O
inactive: dose: 100.0 mg/kg/injection, schedule: Q04DX002 (ip), vehicle: saline with Tween-80 105 % of control | dose: 200.0 mg/kg/injection, schedule: Q04DX002 (ip), vehicle: saline with Tween-80 102 % of control | dose: 400.0 mg/kg/injection, schedule: Q04DX002 (ip), vehicle: saline with Tween-80 102 % of control

N#CCCNC(Cc1ccc(O)cc1)C(=O)O (stereo not drawn)
inactive: dose: 12.5 mg/kg/injection, schedule: Q04DX003 (ip), vehicle: Klucel (hydroxypropylcellulose) (HPC) 104 % of control | [11] 104 % of control | dose: 25.0 mg/kg/injection, schedule: Q04DX003 (ip), vehicle: Klucel (hydroxypropylcellulose) (HPC) 98 % of control | [12] 95 % of control | dose: 50.0 mg/kg/injection, schedule: Q04DX003 (ip), vehicle: Klucel (hydroxypropylcellulose) (HPC) 104 % of control | [13] 106 % of control | [14] 100 % of control

Cc1ccc(/C=C\C(=O)OCCCCOC(=O)/C=C/c2ccc(C)cc2)cc1
inactive: [1] 97 % of control | [2] 95 % of control | [3] 91 % of control | [4] 95 % of control

CCc1ccc(P(=O)(O)O)cc1
inactive: dose: 75.0 mg/kg/injection, schedule: Q01DX001 (ip), vehicle: saline 94 % of control | dose: 150.0 mg/kg/injection, schedule: Q01DX001 (ip), vehicle: saline 103 % of control | dose: 300.0 mg/kg/injection, schedule: Q01DX001 (ip), vehicle: saline 88 % of control
